Test [1] relates to zebrafish larvae caudal fin regeneration. Kind of test: Larval fin regeneration with exposure in distinct time windows post amputation. Type of test: in vivo. The conditions noted are these: 1 μM. As to the method:
Once candidate agents have been determined to affect regeneration, a number of studies may be done. In one example, the IC50 of the candidate agent is determined using methods known in the art. In another example, a secondary screen is performed to aid in identification of a target of the candidate agent. This may be accomplished in many ways. For example, after amputation, the fin undergoes several stages of regeneration. In a first stage, cells migrate into the epithelial wound cap. In a second stage, the blastema differentiates within the wound cap. In a final stage, cells proliferate, leading to outgrowth of the new fin. Thus, by adding the candidate agent to the amputated teleost for short durations of time at different, defined, times after amputation, it is possible to identify which regenerative stage or stages are sensitive to the candidate agent. Specifically, agents present for 0 to 4 hours post amputation (hpa) would preferentially target epithelial wound cap formation. Agents present between 4 and 12 hpa may specifically target blastema formation, and agents present between 12 and 24 hpa may preferentially target cellular differentiation. Finally, agents present between 24 hpa and 72 hpa would target the cellular proliferation stage.
Fertilized eggs were obtained from AB strain zebrafish (University of Oregon, Eugene, Oreg.) for all the experiments. […]

The test system of test [2] is adult zebrafish caudal fin regeneration. Kind of test: Adult zebrafish caudal fin regeneration study. Type of test: in vivo. An excerpt:
The fish were transferred back to the tanks and were continuously exposed to vehicle or Beclomethasone until the end of the study. The exposure solutions were changed daily. The positive “hits” were of different chemical classes and using structure function analysis, a major cluster of compounds was identified as glucocorticoids (5 of the “hit” compounds). […] We selected glucocorticoids for further studies since this was the largest cluster of “hits”. […] This characteristic morphology occurs because the tissue lateral to the amputation plane continues to grow and partially collapses around the amputation plane. Since the adult fin regeneration model is more widely studied, it was important to determine if chemical “hits” identified in the larval screen would be predictive for the adult fin regeneration responses. Therefore, the regeneration response to glucocorticoids exposure on fin regeneration was also assessed in adult zebrafish.

Take `CCC(=O)OCC(=O)[C@@]1(OC(=O)CC)[C@@H](C)C[C@H]2[C@@H]3CCC4=CC(=O)C=C[C@]4(C)[C@@]3(Cl)[C@@H](O)C[C@@]21C` [Beclomethasone, Beclomethasone dipropionate]: the “larval fin regeneration, exposure for four hours immediately following amputation” value in test [1] (0-4 hpa) is “failed to regenerate”. In test [1] (from 4 hpa continuously until 3 dpa), the “larval fin regeneration, exposure beginning at 4 hpa” value was “completely regenerated their fins”. The “adult caudal fin regeneration” value in test [2] (0.005 mg/L waterborne, one day pre-exposure then continuous exposure) was “completely inhibited”. The “new tissue in the adult fin” value in test [2] (at 5 dpa) is “essentially no new tissue”.

The record behind these values is patent US7655832B2, “Rapid-throughput teleost regeneration assay” (The State of Oregon Acting by and Through the State Board …, priority 2006, dated 2010).
